{"source": "paper PMC8429249", "about": "(Journal of medicinal chemistry, 2021)", "key": {"H358 cells [1]": {"test_system": "H358 cells", "details": "read-out: CellTiter-Glo EC50, 96 h, 10% FBS, mean ± SD"}, "H358 cells [2]": {"test_system": "H358 cells", "assay": "MTT cell viability assay", "format": "cell-based, human", "details": "read-out: MTT EC50, 96 h, 10% FBS, mean ± SD"}, "[3]": {"target": "RLuc8-KRasG12V / GFP-CRAF RBD interaction in HEK293T cells (Homo sapiens, UniProt P01116, G12V)", "assay": "Intracellular Ras-Raf BRET2 assay", "format": "cell-based", "details": "0–15 μM, 20 h"}, "[4]": {"target": "RLuc8-KRasG12D / GFP-CRAF RBD interaction in HEK293T cells (Homo sapiens, UniProt P01116, G12D)", "assay": "Intracellular Ras-Raf BRET2 assay", "format": "cell-based", "details": "0–15 μM, 20 h"}}, "note": "Read-outs that look alike come from different tables or passages of the source.", "data": [{"substance": "ΦOSQΦΠ-K-fArR-J-BBK-NH2 [Peptide B3-4]", "values": [{"measurement": "EC50", "setting": "H358 cells [1]", "result": "22 ± 4", "unit": "µM"}, {"measurement": "EC50", "setting": "H358 cells [2]", "result": "29 ± 6", "unit": "µM"}, {"measurement": "effect on BRET signal (KRasG12V-CRAF RBD)", "setting": "[3]", "result": "did not decrease the BRET signal"}, {"measurement": "effect on BRET signal (KRasG12D-CRAF RBD)", "setting": "[4]", "result": "did not decrease the BRET signal"}]}]}
